“And” between values parts separate entries of the source, which are not always exact repeats. Identical values can stand only once. “Also recorded” adds a separate entry of the source.
Key:
[1] = Stability in the simulated gastro-intestinal fluid (sGIF); settings: 0.5% pepsine in 0.1N aqueous HCl, 37° C.; acceptance: NLT 80% of the derivative still intact after 4 hrs
rats = experiment: Randall-Selitto test after SC dose; type: in vivo, rat; settings: Randall-Selitto, rats
Excerpt: FIG. 13 illustrate in the graphical form the results for 1310 NB-33, marked 1310, in comparison to the base NB compound NB, marked 1320 in FIG. 13.

healthy volunteers [2] = experiment: Double-blind trial, miosis after oral capsule; type: in vivo, human; settings: for % MPE (miosis): oral, individual data, 33 45 mg, NB 35 mg, 39 68 mg
Experimental: Double-blind, NB hydrochloride and NB-39 controlled, trial of the antinociceptive effect of oral NB-33 in healthy volunteers. Each of the three healthy volunteers was assigned a set of 6 non-transparent gelatin capsules as follows: 2×NB hydrochloride (MW=393.4; 39 mg), 2×NB-33 (MW=451.6; 45 mg) and 2×NB-39 (MW=680.0; 68 mg). Each week a healthy volunteer would receive a pill from the assigned set in a random fashion and take it orally. At T=0 hr, 0.25 hr, 0.5 hr, 1 hr, 1.5 hr, 2 hr, 3 hr and 5 hr followed oral administration a heat pain threshold was measured (hot water at 50° C.) as well as miosis.
(§1) Following one week of a wash out period, each volunteer repeated the protocol until all pills from the assigned set were administered. The individual data for heat pain threshold as % MPE=[(test latency−baseline latency)/(baseline latency)]×100 and for miosis as % MPE=[(test diameter−baseline diameter)/(baseline diameter)]×100 are shown in Table 2 and Table 3 respectively.
(§2) Independent samples t-test was used to compare the means of % MPE analgesia and miosis in the two pairs of samples: NB-33 and NB and NB-33 and NB-39. All analyses were made using SPSS (v.25). • Bold indicates statistical significance at α=0.05

[3] = tested on: Human recombinant opiate receptor (mu, kappa or delta); experiment: Human recombinant opiate receptor panel, overall profile in words; type: cell-based; settings: CHO-K1 cells, cAMP
Experimental: Human recombinant opiate receptor (mu, kappa or delta) expressed in CHO-K1 cells were used. Test compound (NB-33)/or vehicle was incubated with the cells (4×10E5/mL) in modified HBSS pH 7.4 buffer at […] for 30 min. The reaction was evaluated for cAMP levels by TR-FRET. Compounds were screened at 0.3, 1 and 3 uM. by Eurofins Pharma Discovery Services.
Human recombinant opiate receptor (mu, kappa or delta) expressed in CHO-K1 cells were used. Test compound (NX-90)/or vehicle was incubated with the cells (4×10E5/mL) in modified HBSS pH 7.4 buffer at […] for 30 min. The reaction was evaluated for cAMP levels (cAMP and/or calcium flux) by TR-FRET. Compounds were screened at 0.1, 0.3 and 1 uM by Eurofins Pharma Discovery Services.

healthy volunteers [4] = experiment: Double-blind trial, heat pain threshold (hot water at 50° C.) after oral capsule; type: in vivo, human; settings: for % MPE (analgesia): oral, individual data, 33 45 mg, NB 35 mg, 39 68 mg
Experimental: Double-blind, NB hydrochloride and NB-39 controlled, trial of the antinociceptive effect of oral NB-33 in healthy volunteers. […] Each week a healthy volunteer would receive a pill from the assigned set in a random fashion and take it orally. […]
as §1, §2

Sprague-Dawley rats = experiment: Antinociceptive activity, cold ethanol tail-flick test after oral gavage; type: in vivo, rat
[5] = Stability in human plasma; settings: 37° C., acceptance criteria: NLT than 20% of hydrolysis after 4 hrs

C/C=C/C=C/C(=O)Oc1ccc2c3c1OC1C(O)CCC4(O)C(C2)N(CC2CCC2)CCC314 (centres unmarked) [NB-33, 3-(cyclobutylmethyl)-4a,7-dihydroxy-2,3,4,4a,5,6,7,7a-octahydro-1H-4,12-methanobenzofuro[3,2-e]isoquinolin-9-yl (2E,4E)-hexa-2,4-dienoate]
Stable in sGIF [1]: Yes
analgesic properties vs equimolar dose of the parent opioid NB, in words (Graph 1, FIG. 13) (rats): superior analgesic properties
% MPE (miosis) (healthy volunteers [2]; 0 hr (baseline)): 0.0 % MPE
% MPE (miosis) (healthy volunteers [2]; 0.25 hr): 26.7 % MPE and −8.8 % MPE and 0.3 % MPE and 20.0 % MPE and 0.0 % MPE and −5.0 % MPE
% MPE (miosis) (healthy volunteers [2]; 0.5 hr): 26.7 % MPE (3×) and 3.4 % MPE and 33.3 % MPE and −6.3 % MPE
% MPE (miosis) (healthy volunteers [2]; 1 hr): 40.4 % MPE (2×) and 24.0 % MPE and 42.2 % MPE and 33.9 % MPE and 26.7 % MPE
% MPE (miosis) (healthy volunteers [2]; 1.5 hr): 46.2 % MPE and 20.6 % MPE and 36.5 % MPE (2×) and 42.2 % MPE and 33.9 % MPE
% MPE (miosis) (healthy volunteers [2]; 2 hr): 55.9 % MPE and 37.8 % MPE and 46.2 % MPE (2×) and 42.2 % MPE and 42.9 % MPE
% MPE (miosis) (healthy volunteers [2]; 2.5 hr): 65.7 % MPE and 46.4 % MPE and 63.7 % MPE and 29.5 % MPE and 33.9 % MPE and 46.2 % MPE
% MPE (miosis) (healthy volunteers [2]; 3 hr): 29.0 % MPE and 3.4 % MPE and 36.5 % MPE (2×) and 15.6 % MPE and 25.0 % MPE
% MPE (miosis) (healthy volunteers [2]; 5 hr): 32.1 % MPE and 3.4 % MPE and 36.5 % MPE and 9.3 % MPE and 17.2 % MPE and 33.7 % MPE
effect on pupil dilation (miosis) in humans, in words (healthy volunteers [2]; oral administration): superior; also recorded: significant effect
pharmacological profile at opiate receptors, in words [3]: not a pharmacologically inert compound
% MPE (analgesia) (healthy volunteers [4]; 0 hr (baseline)): 0.0 % MPE
% MPE (analgesia) (healthy volunteers [4]; 0.25 hr): 0.0 % MPE (2×) and 8.3 % MPE and 3.7 % MPE and 31.3 % MPE and 30.0 % MPE
% MPE (analgesia) (healthy volunteers [4]; 0.5 hr): 19.2 % MPE and 24.0 % MPE and 66.7 % MPE and 48.1 % MPE and 37.5 % MPE (2×)
% MPE (analgesia) (healthy volunteers [4]; 1 hr): 100.0 % MPE and 80.0 % MPE and 183.3 % MPE and 59.3 % MPE and 50.0 % MPE and 67.5 % MPE
% MPE (analgesia) (healthy volunteers [4]; 1.5 hr): 115.4 % MPE and 140.0 % MPE and 87.5 % MPE and 114.8 % MPE and 68.8 % MPE and 97.5 % MPE
% MPE (analgesia) (healthy volunteers [4]; 2 hr): 111.5 % MPE and 124.0 % MPE and 191.7 % MPE and 185.2 % MPE and 81.3 % MPE and 157.5 % MPE
% MPE (analgesia) (healthy volunteers [4]; 2.5 hr): 119.2 % MPE and 96.0 % MPE and 112.5 % MPE (2×) and 133.3 % MPE and 31.3 % MPE
% MPE (analgesia) (healthy volunteers [4]; 3 hr): 157.7 % MPE and 60.0 % MPE and 45.8 % MPE and 118.5 % MPE and 25.0 % MPE and 27.5 % MPE
% MPE (analgesia) (healthy volunteers [4]; 5 hr): 115.4 % MPE and 24.0 % MPE and 20.8 % MPE and 44.4 % MPE and 18.8 % MPE and 22.5 % MPE
analgesia in humans, in words (healthy volunteers [4]; given orally, compared with equivalent dose of Nalbuphine (NB) and NB-39): superior
analgesia in rats, in words (Sprague-Dawley rats; given orally, compared with equivalent dose of Nalbuphine (parent opioid)): excellent and superior results; also recorded: better analgesia than the parent opioid
Analgesia (rat) (Sprague-Dawley rats; oral gavage in sesame oil, 60 uM/kg, one dose, tail-flick at −20° C., cutoff 40 seconds): Excellent
Stable in plasma [5]: No

Reference: patent publication US11186585B2 (priority 2018, dated 2021)
